Assay results: ChEMBL document CHEMBL3608294, “Epoxylathyrol Derivatives: Modulation of ABCB1-Mediated Multidrug Resistance in Human Colon Adenocarcinoma and Mouse T-Lymphoma Cells” (J Nat Prod, 2015); call rule not given here

How the values were obtained:
[1] = molecular target: T1, ATP-dependent translocase ABCB1 (Homo sapiens, UniProt P08183); experiment: Inhibition of human ABCB1 expressed in mouse L5178Y cells assessed as fluorescence activity ratio at 20 uM incubated for 10 mins by flow cytometry based rhodamine-123 accumulation assay (reference value: 0.78); assay type: cell-based
T1 sequence (P08183 whole entry): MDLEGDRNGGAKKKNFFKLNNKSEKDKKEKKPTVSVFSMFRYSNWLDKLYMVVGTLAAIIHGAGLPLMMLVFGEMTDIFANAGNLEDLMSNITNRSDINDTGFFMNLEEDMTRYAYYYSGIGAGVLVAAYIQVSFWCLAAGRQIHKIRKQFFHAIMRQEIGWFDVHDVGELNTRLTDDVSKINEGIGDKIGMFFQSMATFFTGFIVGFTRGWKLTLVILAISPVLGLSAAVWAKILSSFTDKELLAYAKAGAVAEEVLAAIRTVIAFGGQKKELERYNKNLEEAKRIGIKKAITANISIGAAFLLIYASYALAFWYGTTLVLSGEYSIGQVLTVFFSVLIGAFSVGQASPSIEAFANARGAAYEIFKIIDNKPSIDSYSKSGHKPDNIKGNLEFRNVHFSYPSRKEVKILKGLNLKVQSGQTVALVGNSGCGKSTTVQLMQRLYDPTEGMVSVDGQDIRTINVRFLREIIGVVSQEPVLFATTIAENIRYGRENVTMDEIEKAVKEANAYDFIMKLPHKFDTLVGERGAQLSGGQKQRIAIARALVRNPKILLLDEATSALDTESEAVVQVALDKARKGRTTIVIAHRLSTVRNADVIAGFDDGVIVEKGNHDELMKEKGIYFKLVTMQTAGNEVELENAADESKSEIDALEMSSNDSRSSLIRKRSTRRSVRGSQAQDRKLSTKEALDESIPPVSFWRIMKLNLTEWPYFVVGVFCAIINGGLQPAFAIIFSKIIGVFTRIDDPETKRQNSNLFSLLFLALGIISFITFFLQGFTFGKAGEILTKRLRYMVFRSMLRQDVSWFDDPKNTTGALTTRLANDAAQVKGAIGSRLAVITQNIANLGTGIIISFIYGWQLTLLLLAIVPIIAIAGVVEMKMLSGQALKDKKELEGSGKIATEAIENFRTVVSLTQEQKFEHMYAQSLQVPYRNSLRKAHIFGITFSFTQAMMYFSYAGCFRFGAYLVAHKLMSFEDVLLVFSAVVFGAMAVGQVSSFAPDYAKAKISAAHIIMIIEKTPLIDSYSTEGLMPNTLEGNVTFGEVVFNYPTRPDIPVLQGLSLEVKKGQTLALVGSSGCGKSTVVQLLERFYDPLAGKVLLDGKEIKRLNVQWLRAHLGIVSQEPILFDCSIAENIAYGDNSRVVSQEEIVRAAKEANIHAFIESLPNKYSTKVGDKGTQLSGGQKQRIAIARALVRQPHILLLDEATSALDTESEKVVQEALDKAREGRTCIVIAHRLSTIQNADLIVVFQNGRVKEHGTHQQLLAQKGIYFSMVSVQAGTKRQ

L5178Y [2] = experiment: Cytotoxicity against human ABCB1 expressing mouse L5178Y cells incubated for 24 hrs by MTT assay; assay type: functional, cell-based
L5178Y [3] = experiment: Antiproliferative activity against human ABCB1 expressing mouse L5178Y cells incubated for 72 hrs by MTT assay; assay type: functional, cell-based
COLO 205 = experiment: Cytotoxicity against chemosensitive human COLO205 cells incubated for 24 hrs by MTT assay; assay type: functional, cell-based; conditions: COLO 205, 24 h
L5178Y [4] = experiment: Antiproliferative activity against chemosensitive wild type parental mouse L5178Y cells incubated for 72 hrs by MTT assay; assay type: functional, cell-based
[5] = molecular target: T1, ATP-dependent translocase ABCB1; experiment: Inhibition of ABCB1 in multidrug resistant human COLO320 cells assessed as fluorescence activity ratio at 2 uM incubated for 10 mins by flow cytometry based rhodamine-123 accumulation assay (reference value: 0.62)
[6] = Antiproliferative activity against chemosensitive human COLO205 cells incubated for 72 hrs by MTT assay; assay type: functional, cell-based; conditions: COLO 205, 72 h
L5178Y [7] = experiment: Cytotoxicity against chemosensitive wild type parental mouse L5178Y cells incubated for 24 hrs by MTT assay; assay type: functional, cell-based
L5178Y [8] = experiment: Selectivity index, ratio of cytotoxic IC50 for wild type parental mouse L5178Y cells to cytotoxic IC50 for human ABCB1 expressing mouse L5178Y cells; assay type: functional
[9] = Antiproliferative activity against multidrug resistant human COLO320 cells incubated for 72 hrs by MTT assay; assay type: functional; conditions: COLO 320, 72 h
[10] = molecular target: T1, ATP-dependent translocase ABCB1; experiment: Inhibition of ABCB1 in multidrug resistant human COLO320 cells assessed as fluorescence activity ratio at 20 uM incubated for 10 mins by flow cytometry based rhodamine-123 accumulation assay (reference value: 0.62)
[11] = molecular target: T1, ATP-dependent translocase ABCB1; experiment: Inhibition of human ABCB1 expressed in mouse L5178Y cells assessed as potentiation of 2 mg/ml doxorubicin-induced cytotoxicty by measuring combination index at 5:1 compound to doxorubicin ratio incubated for 48 hrs by MTT assay; assay type: cell-based
[12] = Cytotoxicity against multidrug resistant human COLO320 cells incubated for 24 hrs by MTT assay; assay type: functional, cell-based; conditions: COLO 320, 24 h
[13] = Selectivity index, ratio of antiproliferative IC50 for chemosensitive human COLO205 cells to antiproliferative IC50 for multidrug resistant human COLO320 cells; assay type: functional, COLO 205
[14] = Selectivity index, ratio of cytotoxic IC50 for chemosensitive human COLO205 cells to cytotoxic IC50 for multidrug resistant human COLO320 cells; assay type: functional, COLO 205
L5178Y [15] = experiment: Selectivity index, ratio of antiproliferative IC50 for wild type parental mouse L5178Y cells to antiproliferative IC50 for human ABCB1 expressing mouse L5178Y cells; assay type: functional
[16] = molecular target: T1, ATP-dependent translocase ABCB1; experiment: Inhibition of human ABCB1 expressed in mouse L5178Y cells assessed as fluorescence activity ratio at 0.2 uM incubated for 10 mins by flow cytometry based rhodamine-123 accumulation assay (reference value: 0.78); assay type: cell-based
[17] = molecular target: T1, ATP-dependent translocase ABCB1; experiment: Inhibition of ABCB1 in multidrug resistant human COLO320 cells assessed as fluorescence activity ratio at 0.2 uM incubated for 10 mins by flow cytometry based rhodamine-123 accumulation assay (reference value: 0.62)
[18] = molecular target: T1, ATP-dependent translocase ABCB1; experiment: Inhibition of human ABCB1 expressed in mouse L5178Y cells assessed as fluorescence activity ratio at 2 uM incubated for 10 mins by flow cytometry based rhodamine-123 accumulation assay (reference value: 0.78); assay type: cell-based
[19] = molecular target: T1, ATP-dependent translocase ABCB1; experiment: Inhibition of human ABCB1 expressed in mouse L5178Y cells assessed as potentiation of 2 mg/ml doxorubicin-induced cytotoxicty at 9:1 compound to doxorubicin ratio incubated for 48 hrs by MTT assay; assay type: cell-based
[20] = molecular target: T1, ATP-dependent translocase ABCB1; experiment: Inhibition of human ABCB1 expressed in mouse L5178Y cells assessed as potentiation of 2 mg/ml doxorubicin-induced cytotoxicty at 6:1 compound to doxorubicin ratio incubated for 48 hrs by MTT assay; assay type: cell-based
[21] = molecular target: T1, ATP-dependent translocase ABCB1; experiment: Activation of human ABCB1 expressed in Sf9 cell membrane vesicles assessed as inorganic phosphate release at 0.8 uM to 100 uM using MgATP by colorimetric ATPase assay
[22] = molecular target: T1, ATP-dependent translocase ABCB1; experiment: Non-competitive inhibition of human ABCB1 expressed in Sf9 cell membrane vesicles assessed as reduction in verapamil transport at >25 uM using MgATP by colorimetric ATPase assay
[23] = molecular target: T1, ATP-dependent translocase ABCB1; experiment: Non-competitive inhibition of human ABCB1 expressed in Sf9 cell membrane vesicles assessed as reduction in vanadate-sensitive ATPase activity at >25 uM using MgATP by colorimetric ATPase assay

C/C1=C\[C@@H]2[C@H](CC[C@]3(CO3)[C@H](OC(=O)c3ccc(N(C)C)cc3)[C@H]3[C@@H](OC(=O)c4ccc(N(C)C)cc4)[C@@H](C)C[C@]3(O)C1=O)C2(C)C
Ratio [1]: 56.81 | IC50 (L5178Y [2]): 48.4 µM | IC50 (L5178Y [3]): 45.7 µM | IC50 (COLO 205): 22.5 µM | IC50 (L5178Y [4]): 28.8 µM | Ratio [5]: 3.07 | IC50 [6]: 17.2 µM | IC50 (L5178Y [7]): 33.9 µM | Ratio IC50 (L5178Y [8]): 0.7 | IC50 [9]: 21.3 µM | Ratio [10]: 12.31 | CI [11]: 0.172 | IC50 [12]: 36.2 µM | Ratio IC50 [13]: 0.8 | Ratio IC50 [14]: 0.62 | Ratio IC50 (L5178Y [15]): 0.63 | Ratio [16]: 1.38 | Ratio [17]: 1.02 | Ratio [18]: 8.03

COc1ccccc1C(=O)OC[C@]1(C)CC[C@H]2[C@@H](/C=C(\C)C(=O)[C@@]3(O)C[C@H](C)[C@H](OC(=O)c4ccccc4OC)[C@@H]3[C@H]1O)C2(C)C
Ratio [1]: 55.43 | IC50 (L5178Y [2]): 38.9 µM | IC50 (L5178Y [3]): 31.3 µM | IC50 (COLO 205): 24.6 µM | IC50 (L5178Y [4]): 24.4 µM | Ratio [5]: 4.44 | IC50 [6]: 15.5 µM | IC50 (L5178Y [7]): 29.9 µM | Ratio IC50 (L5178Y [8]): 0.77 | IC50 [9]: 17.8 µM | Ratio [10]: 12.35 | CI [19]: 0.051 | IC50 [12]: 25.1 µM | Ratio IC50 [13]: 0.87 | Ratio IC50 [14]: 0.99 | Ratio IC50 (L5178Y [15]): 0.78 | Ratio [16]: 2.47 | Ratio [17]: 1.25 | Ratio [18]: 33.36

C/C1=C\[C@@H]2[C@H](CC[C@@](C)(O)[C@H](O)[C@H]3[C@@H](OC(=O)c4ccccc4)[C@@H](C)C[C@]3(O)[C@H]1O)C2(C)C
Ratio [1]: 33.19 | IC50 (L5178Y [2]): > 100 µM | IC50 (L5178Y [3]): > 100 µM | IC50 (COLO 205): > 100 µM | IC50 (L5178Y [4]): > 100 µM | CI [20]: 0.23 | Ratio [5]: 1.37 | IC50 [6]: 30.4 µM | IC50 (L5178Y [7]): > 100 µM | IC50 [9]: 37.1 µM | Ratio [10]: 4.29 | IC50 [12]: 52.7 µM | Ratio IC50 [13]: 0.84 | Ratio IC50 [14]: >1.9 | Ratio [18]: 1.45

C/C1=C\[C@@H]2[C@H](CC[C@]3(CO3)[C@H](OC(=O)c3cccs3)[C@H]3[C@@H](OC(=O)c4cccs4)[C@@H](C)C[C@]3(O)C1=O)C2(C)C
Ratio [1]: 68.74 | IC50 (L5178Y [2]): 28.3 µM | IC50 (L5178Y [3]): 32.4 µM | IC50 (COLO 205): > 100 µM | Activity [21]: Active | IC50 (L5178Y [4]): 26.2 µM | Ratio [5]: 8.44 | IC50 [6]: 18.8 µM | IC50 (L5178Y [7]): 32.8 µM | Ratio IC50 (L5178Y [8]): 1.16 | IC50 [9]: > 100 µM | Ratio [10]: 12.16 | CI [11]: 0.196 | IC50 [12]: 25.1 µM | Ratio IC50 [13]: <0.19 | Ratio IC50 [14]: >3.99 | Ratio IC50 (L5178Y [15]): 0.81 | inhibition (INH) [22]: Active | inhibition (INH) [23]: Active | Ratio [18]: 31.06

COc1cccc(C(=O)O[C@@H]2[C@@H]3[C@@H](OC(=O)c4cccc(OC)c4)[C@]4(CC[C@H]5[C@@H](/C=C(\C)C(=O)[C@@]3(O)C[C@@H]2C)C5(C)C)CO4)c1
Ratio [1]: 63.13 | IC50 (L5178Y [2]): > 100 µM | IC50 (L5178Y [3]): 52.8 µM | IC50 (COLO 205): > 100 µM | Activity [21]: Active | IC50 (L5178Y [4]): 24.5 µM | Ratio [5]: 9.1 | IC50 [6]: > 100 µM | IC50 (L5178Y [7]): 42.3 µM | Ratio IC50 (L5178Y [8]): <0.42 | IC50 [9]: > 100 µM | Ratio [10]: 15.4 | CI [11]: 0.097 | IC50 [12]: > 100 µM | Ratio IC50 (L5178Y [15]): 0.46 | Ratio [16]: 10.45 | Ratio [17]: 3.13 | Ratio [18]: 60.62
